Assay results reported in patent US9994515B2, “Aryl naphthyl methanone oxime(s) and process for preparation thereof” (Council of Scientific & Industrial Research, priority 2013, dated 2018).
Counter-ions that a name gives are not always drawn.

Legend:
DU-145 = assay: MTT assay in DU-145 prostate tumor cells; format: cell-based; details: 10 point dose response
K562 = assay: MTT cytotoxicity assay in K562 cells; format: cell-based; details: Homo sapiens, K562, 48 h, Table 1; MTT assay after 48 h treatment
NIH3T3 = assay: MTT cytotoxicity assay in NIH3T3 fibroblasts; format: cell-based, mouse; details: Mus musculus, NIH3T3, 48 h, Table 1; MTT assay after 48 h treatment
Description: To consider a molecule as a candidate compound in cancer drug therapy, the test compound must have specific cytotoxicity towards the cancer cells without affecting normal cell growth. Therefore, all active compounds were assessed for toxicity in non-cancer cell-lines: mouse fibroblast cell line (NIH3T3) and monkey kidney epithelial cells (Vero). […] Therefore, based on safety index ([…]), 5d [Centans; based on IUPAC name prefixed with Central Drug Research Institute's signature (Cent)] was selected as a lead compound.

MDA-MB231 = assay: MTT assay in MDA-MB-231 breast tumor cells; format: cell-based; details: 10 point dose response
Ishikawa = assay: MTT assay in Ishikawa endometrial adenocarcinoma cells; format: cell-based; details: Table 6, 48 h, 10 point dose response
HL60 = assay: MTT cytotoxicity assay in HL-60 cells; format: cell-based; details: Homo sapiens, HL-60, 48 h, Table 1; MTT assay after 48 h treatment
MCF-7 = assay: MTT assay in MCF-7 breast tumor cells; format: cell-based; details: 10 point dose response
[1] = Homo sapiens, DU-145, Table 6, 48 h
[2] = Homo sapiens, MDA-MB-231, Table 6, 48 h
[3] = Homo sapiens, MCF7, Table 6, 48 h

Row | Compound | IC50 (DU-145; [1]) | IC50 (K562) | IC50 (NIH3T3) | IC50 (MDA-MB231; [2]) | IC50 (Ishikawa; Homo sapiens, Ishikawa) | IC50 (HL60) | IC50 (MCF-7; [3]) | melting point | also measured
1 | COc1ccc(/C(=N/OCCCN(C)C)c2cccc3ccccc23)cc1 [Compound 6i, (4-methoxyphenyl)(naphthalen-1-yl)methanone O-3-(dimethylamino)propyl oxime oxalate] | > 50 µM | > 50 µM | > 50 µM | > 50 µM | > 50 µM | > 50 µM | 20.5 µM | – | –
2 | CSc1ccc(/C(=N/OCCN2CCOCC2)c2cccc3ccccc23)cc1 [Compound 5f, (4-(methylthio)phenyl)(naphthalen-1-yl)methanone O-2-morpholinoethyl oxime] | > 50 µM | > 25 µM | 26 µM | > 50 µM | > 50 µM | > 50 µM | > 50 µM | – | –
3 | COc1ccc(/C(=N/OCCN(C)C)c2cccc3ccccc23)cc1 [Compound 6c, (4-methoxyphenyl)(naphthalen-1-yl)methanone O-2-(dimethylamino)ethyl oxime oxalate] | > 50 µM | > 50 µM | > 50 µM | > 50 µM | > 50 µM | > 50 µM | 15 µM | – | –
4 | COc1ccc(/C(=N/OCCN(C(C)C)C(C)C)c2cccc3ccccc23)cc1 [Compound 6e, (4-methoxyphenyl)(naphthalen-1-yl)methanone O-2-(diisopropylamino)ethyl oxime oxalate] | > 50 µM | > 50 µM | > 50 µM | > 50 µM | > 50 µM | > 50 µM | 23 µM | – | –
5 | CSc1ccc(/C(=N/OCCCN2CCCCC2)c2cccc3ccccc23)cc1 [Compound 7a, (4-(methylthio)phenyl)(naphthalen-1-yl)methanone O-3-(piperidin-1-yl)propyl oxime oxalate] | 15 µM | > 20 µM | > 50 µM | 20 µM | 12 µM | > 50 µM | 5 µM | – | –
6 | CSc1ccc(/C(=N/OCCN2CCCC2)c2cccc3ccccc23)cc1 (as salt: oxalate) [Compound 5b, (4-(methylthio)phenyl)(naphthalen-1-yl)methanone O-2-(pyrrolidin-1-yl)ethyl oxime oxalate] | – | – | – | – | – | – | – | 153 °C | –
7 | CCN(CC)CCO/N=C(/c1ccc(OC)cc1)c1cccc2ccccc12 (as salt: oxalate) [Compound 6d, (4-methoxyphenyl)(naphthalen-1-yl)methanone O-2-(diethylamino)ethyl oxime oxalate] | – | – | – | – | – | – | – | 137 °C | –
8 | 4-hydroxy-tamoxifen [OH-TAM, reference compound] | – | – | – | – | – | – | – | – | IC50 (DU-145; Table 6, 48 h): 10 µM; IC50 (MDA-MB231; Table 6, 48 h): 8 µM; IC50 (Ishikawa): 20 µM; IC50 (MCF-7; Table 6, 48 h): 8.8 µM
9 | COc1ccc(/C(=N/O)c2cccc3ccccc23)cc1 [Compound 4b, (4-methoxyphenyl)(naphthalen-1-yl)methanone oxime] | – | > 50 µM | > 50 µM | – | – | > 50 µM | – | 132 °C | –
10 | CSc1ccc(/C(=N/OC(C)CN(C)C)c2cccc3ccccc23)cc1 (stereo not drawn) (as salt: oxalate) [Compound 5g, (4-(methylthio)phenyl)(naphthalen-1-yl)methanone O-1-(dimethylamino)propan-2-yl oxime oxalate] | – | – | – | – | – | – | – | 101 °C | –
11 | COc1ccc(/C(=N/OCCN2CCCCCC2)c2cccc3ccccc23)cc1 (as salt: oxalate) [Compound 6g, (4-methoxyphenyl)(naphthalen-1-yl)methanone O-2-(azepan-1-yl)ethyl oxime oxalate] | – | – | – | – | – | – | – | 122 °C | –
12 | COc1ccc(/C(=N/OCCN2CCCCC2)c2cccc3ccccc23)cc1 (as salt: oxalate) [Compound 6a, (4-methoxyphenyl)(naphthalen-1-yl)methanone O-2-(piperidin-1-yl)ethyl oxime oxalate] | – | – | – | – | – | – | – | 171 °C | –
